# Target: T1, EHMT2 (G9a) (Homo sapiens, UniProt Q96KQ7)
# T1 sequence (Q96KQ7 1-1210): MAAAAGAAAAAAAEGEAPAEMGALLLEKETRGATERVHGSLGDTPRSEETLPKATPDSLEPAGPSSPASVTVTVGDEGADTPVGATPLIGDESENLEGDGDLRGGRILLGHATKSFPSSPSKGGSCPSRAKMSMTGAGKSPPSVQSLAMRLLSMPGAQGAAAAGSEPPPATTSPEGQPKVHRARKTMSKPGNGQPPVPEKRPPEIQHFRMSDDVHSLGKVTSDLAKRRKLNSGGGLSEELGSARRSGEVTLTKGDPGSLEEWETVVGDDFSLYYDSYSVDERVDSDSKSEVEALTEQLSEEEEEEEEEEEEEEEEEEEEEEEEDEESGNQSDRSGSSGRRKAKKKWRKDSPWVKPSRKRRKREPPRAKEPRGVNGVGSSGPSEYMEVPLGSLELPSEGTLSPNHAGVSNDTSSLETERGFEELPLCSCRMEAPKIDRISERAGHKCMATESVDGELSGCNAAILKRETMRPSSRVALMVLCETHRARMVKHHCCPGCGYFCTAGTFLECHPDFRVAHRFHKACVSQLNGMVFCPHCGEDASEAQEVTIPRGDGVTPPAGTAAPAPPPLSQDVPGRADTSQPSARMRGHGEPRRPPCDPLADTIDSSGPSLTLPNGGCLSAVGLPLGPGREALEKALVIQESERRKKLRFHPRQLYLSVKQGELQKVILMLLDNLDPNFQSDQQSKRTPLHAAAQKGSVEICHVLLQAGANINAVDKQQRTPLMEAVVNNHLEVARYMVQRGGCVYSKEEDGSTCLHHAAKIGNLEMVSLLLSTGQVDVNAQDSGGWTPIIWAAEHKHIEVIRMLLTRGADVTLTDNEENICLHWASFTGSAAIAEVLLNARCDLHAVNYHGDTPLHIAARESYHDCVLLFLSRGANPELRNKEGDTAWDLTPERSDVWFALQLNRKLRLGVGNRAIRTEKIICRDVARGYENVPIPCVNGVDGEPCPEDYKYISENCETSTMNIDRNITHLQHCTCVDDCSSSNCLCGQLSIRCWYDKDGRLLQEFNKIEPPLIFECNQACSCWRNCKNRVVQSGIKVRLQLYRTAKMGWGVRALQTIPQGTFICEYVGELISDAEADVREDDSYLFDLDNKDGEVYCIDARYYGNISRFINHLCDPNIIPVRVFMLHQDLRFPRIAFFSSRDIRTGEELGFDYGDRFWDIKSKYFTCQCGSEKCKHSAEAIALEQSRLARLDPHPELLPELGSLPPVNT
# Assay: Competitive affinity-based chemoproteomics (UNC0965 matrix), MCF7 lysate
# Type: binding
# Parameters: endogenous in cells; host or cells: MCF7 whole cell lysate
# Conditions: MCF7 lysates, 20 μM competitor
# Procedure: A-366 and UNC0638 were purchased from Tocris. ARIAD and V-11-07-11 were purchased from Wuxi Apptec. UNC0737 and UNC0965 were synthesised as previously described.[1] Hemicholinium-3 and pyruvate kinase/lactic dehydrogenase enzymes were purchased from Sigma Aldrich. Aqueous and organic solvents were MS-grade and acquired by Sigma Aldrich unless stated otherwise.
# MDA-MB-231, MCF7 and HEK293 cells were cultured in DMEM (Gibco, #11965092) supplemented with 10% FBS. K562 were cultured in IMDM (Gibco, #12440053) supplemented with 10% FBS. HepG2 were cultured in MEM (Gibco, #11095080) supplemented with 10 % FBS. […]
# cultured in McCoy’s 5A (Sigma, M8403) supplemented with 10 % FBS and 1x GlutaMAX (Gibco, #35050061). Cells were maintained at 37 °C in a humidified 5% CO2 atmosphere. Peripheral blood mononuclear cells (PBMC) were isolated from healthy blood donors by density centrifugation. […]
# Cell Titer-Glo® reagent was added to each well and total luminescence readings were performed within 15 min using the PHERAstar FSX (BMG Labtech). […]
# Digested samples were analysed by nano-UPLC–MS/MS using a Dionex Ultimate 3000 nano UPLC fitted with an EASY spray column (75 μm × 500 mm, 2 μm particle size, Thermo Scientific), coupled to an Orbitrap Q Exactive instrument. […]
row,SMILES,competition for EHMT2 (G9a) binding to affinity matrix
1,COc1cc2c(NC3CCN(C(C)C)CC3)nc(C3CCCCC3)nc2cc1OCCCN1CCCC1 [UNC0638],strong enrichment and competition
2,COc1cc2c(N(C)C3CCN(C(C)C)CC3)nc(C3CCCCC3)nc2cc1OCCCN1CCCC1 [UNC0737],did not ablate binding

# Source: paper PMC11811597, “Phenomics‐Based Discovery of Novel Orthosteric Choline Kinase Inhibitors” (Angewandte Chemie (International Ed. in English), 2025)
